Test results from US12122763B2, “Substituted piperidines for androgen receptor degradation” (UBIX THERAPEUTICS, INC., priority 2020, dated 2024).

Molecular target: T1, Androgen Receptor (AR) protein (Homo sapiens, UniProt P10275, T878A)
T1 construct: endogenous in cells; host or cells: LNCaP
Test: Androgen Receptor (AR) protein degradation assay in LNCaP cells, western blotting
Type: cell-based
Settings: 20 h; for inhibition at 0.01 µM: 0.01 μM compound; for inhibition at 0.1 µM: 0.1 μM compound; for inhibition at 1 µM: 1 μM compound; for inhibition at 10 µM: 10 μM compound
Method in brief: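 AR protein level was detected by western blot (ECL) against GAPDH or β-actin controls, with 8 μg lysate protein loaded per lane after BCA quantification. Lysates came from LNCaP cells exposed to test compound for 20 h, following 3 days of growth in RPMI/10% FBS.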

T1 sequence (P10275 whole entry T878A): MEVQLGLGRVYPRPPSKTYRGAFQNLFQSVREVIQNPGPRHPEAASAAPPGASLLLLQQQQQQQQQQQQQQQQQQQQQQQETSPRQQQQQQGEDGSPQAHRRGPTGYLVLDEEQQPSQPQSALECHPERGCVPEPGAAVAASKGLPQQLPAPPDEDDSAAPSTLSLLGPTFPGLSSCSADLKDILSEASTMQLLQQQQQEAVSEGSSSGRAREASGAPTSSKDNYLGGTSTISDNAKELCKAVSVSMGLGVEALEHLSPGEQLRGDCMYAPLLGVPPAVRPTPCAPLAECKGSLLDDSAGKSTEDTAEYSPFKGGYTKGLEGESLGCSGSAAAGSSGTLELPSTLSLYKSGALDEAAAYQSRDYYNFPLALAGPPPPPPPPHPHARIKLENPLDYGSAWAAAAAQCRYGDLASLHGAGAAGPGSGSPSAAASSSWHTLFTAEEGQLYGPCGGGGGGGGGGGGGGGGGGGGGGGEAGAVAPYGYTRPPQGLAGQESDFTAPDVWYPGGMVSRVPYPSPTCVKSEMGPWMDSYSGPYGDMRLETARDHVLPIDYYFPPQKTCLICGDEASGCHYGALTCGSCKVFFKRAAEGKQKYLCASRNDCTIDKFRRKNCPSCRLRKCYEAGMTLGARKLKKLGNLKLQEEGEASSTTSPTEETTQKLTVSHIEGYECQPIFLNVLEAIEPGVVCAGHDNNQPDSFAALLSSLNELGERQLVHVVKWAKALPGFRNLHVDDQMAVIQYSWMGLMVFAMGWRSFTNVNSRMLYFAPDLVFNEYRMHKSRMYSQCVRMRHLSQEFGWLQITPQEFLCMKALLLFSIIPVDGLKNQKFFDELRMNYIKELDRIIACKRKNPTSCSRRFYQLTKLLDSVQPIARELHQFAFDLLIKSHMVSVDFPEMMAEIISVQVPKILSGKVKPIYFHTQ
T1 sequence (Q96SW2 whole entry partner): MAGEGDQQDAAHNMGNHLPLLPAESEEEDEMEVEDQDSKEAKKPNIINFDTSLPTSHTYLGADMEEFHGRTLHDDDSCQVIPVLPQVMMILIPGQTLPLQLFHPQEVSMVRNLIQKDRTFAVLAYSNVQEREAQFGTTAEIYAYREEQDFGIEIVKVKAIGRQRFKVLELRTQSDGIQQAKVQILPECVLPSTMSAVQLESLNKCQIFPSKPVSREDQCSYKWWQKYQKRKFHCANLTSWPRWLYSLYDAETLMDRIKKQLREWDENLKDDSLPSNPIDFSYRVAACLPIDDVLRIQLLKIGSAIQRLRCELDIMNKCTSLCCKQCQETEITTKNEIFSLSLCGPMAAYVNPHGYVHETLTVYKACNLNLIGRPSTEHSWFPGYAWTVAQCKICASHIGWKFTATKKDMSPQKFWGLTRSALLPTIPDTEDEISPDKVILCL

SMILES | inhibition at 0.01 µM | inhibition at 0.1 µM | inhibition at 1 µM | inhibition at 10 µM
N#Cc1ccc(N2CCN(C(=O)Nc3ccc(N4CCC(CN5CC6(CCN(c7ccc8c(c7)C(=O)N(C7CCC(=O)NC7=O)C8=O)CC6)C5)CC4)nc3)CC2)cc1Cl (stereo not drawn) [Example 104, 4-(3-chloro-4-cyanophenyl)-N-(6-(4-((7-(2-(2,6-dioxopiperidin-3-yl)-1,3-dioxoisoindolin-5-yl)-2,7-diazaspiro[3.5]nonan-2-yl)methyl)piperidin-1-yl)pyridin-3-yl)piperazine-1-carboxamide] | -2% | -5% | 36% | 59%
N#Cc1ccc(N2CCC(C(=O)Nc3ccc(N4CCC(CN5CCN(C6CCN(c7ccc(C(=O)NC8CCC(=O)NC8=O)nc7)CC6)CC5)CC4)cn3)CC2)cc1C(F)(F)F (stereo not drawn) [Example 105, 5-(4-(4-((1-(6-(1-(4-cyano-3-(trifluoromethyl)phenyl)piperidine-4-carboxamido)pyridin-3-yl)piperidin-4-yl)methyl)piperazin-1-yl)piperidin-1-yl)-N-(2,6-dioxopiperidin-3-yl)picolinamide] | 43% | 82% | 92% | –
N#Cc1ccc(N2CCC(C(=O)Nc3ccc(N4CCC(CN5CCN(CC6CCN(c7ccc(C(=O)NC8CCC(=O)NC8=O)nc7)CC6)CC5)CC4)cn3)CC2)cc1C(F)(F)F (stereo not drawn) [Example 106, 5-(4-((4-((1-(6-(1-(4-cyano-3-(trifluoromethyl)phenyl)piperidine-4-carboxamido)pyridin-3-yl)piperidin-4-yl)methyl)piperazin-1-yl)methyl)piperidin-1-yl)-N-(2,6-dioxopiperidin-3-yl)picolinamide] | 32% | 86% | 96% | –
N#Cc1ccc(N2CCC(C(=O)Nc3ccc(N4CCC(CCN5CCN(c6ccc(C(=O)NC7CCC(=O)NC7=O)nc6)CC5)CC4)cn3)CC2)cc1C(F)(F)F (stereo not drawn) [Example 107, 5-(4-(2-(1-(6-(1-(4-cyano-3-(trifluoromethyl)phenyl)piperidine-4-carboxamido)pyridin-3-yl)piperidin-4-yl)ethyl)piperazin-1-yl)-N-(2,6-dioxopiperidin-3-yl)picolinamide] | 44% | 85% | 93% | –
C[C@@H]1CN(CC2CCN(c3ccc(C(=O)NC4CCC(=O)NC4=O)nc3)CC2)CCN1CC1CCN(c2ccc(NC(=O)C3CCN(c4ccc(C#N)c(C(F)(F)F)c4)CC3)nc2)CC1 (stereo partly drawn) [Example 108, 5-(4-(((R)-4-((1-(6-(1-(4-cyano-3-(trifluoromethyl)phenyl)piperidine-4-carboxamido)pyridin-3-yl)piperidin-4-yl)methyl)-3-methylpiperazin-1-yl)methyl)piperidin-1-yl)-N-(2,6-dioxopiperidin-3-yl)picolinamide] | 51% | 85% | 89% | –
C[C@H]1CN(CC2CCN(c3ccc(C(=O)NC4CCC(=O)NC4=O)nc3)CC2)CCN1CC1CCN(c2ccc(NC(=O)C3CCN(c4ccc(C#N)c(C(F)(F)F)c4)CC3)nc2)CC1 (stereo partly drawn) [Example 109, 5-(4-(((S)-4-((1-(6-(1-(4-cyano-3-(trifluoromethyl)phenyl)piperidine-4-carboxamido)pyridin-3-yl)piperidin-4-yl)methyl)-3-methylpiperazin-1-yl)methyl)piperidin-1-yl)-N-(2,6-dioxopiperidin-3-yl)picolinamide] | 30% | 82% | 83% | –
CN(CCN1CCN(c2ccc3c(c2)C(=O)N(C2CCC(=O)NC2=O)C3=O)CC1)CC1CCN(c2ccc(NC(=O)C3CCN(c4ccc(C#N)c(C(F)(F)F)c4)CC3)nc2)CC1 (stereo not drawn) [Example 110, 1-(4-cyano-3-(trifluoromethyl)phenyl)-N-(5-(4-(((2-(4-(2-(2,6-dioxopiperidin-3-yl)-1,3-dioxoisoindolin-5-yl)piperazin-1-yl)ethyl)(methyl)amino)methyl)piperidin-1-yl)pyridin-2-yl)piperidine-4-carboxamide] | 56% | 89% | 88% | –
N#Cc1ccc(N2CCC(C(=O)Nc3ccc(N4CCN(C(=O)CCCCCNc5ccc6c(c5)C(=O)N(C5CCC(=O)NC5=O)C6=O)CC4)cn3)CC2)cc1C(F)(F)F (stereo not drawn) [Example 111, 1-(4-cyano-3-(trifluoromethyl)phenyl)-N-(5-(4-(6-((2-(2,6-dioxopiperidin-3-yl)-1,3-dioxoisoindolin-5-yl)amino)hexanoyl)piperazin-1-yl)pyridin-2-yl)piperidine-4-carboxamide] | 29% | 70% | 67% | 67%
N#Cc1ccc(N2CCC(C(=O)Nc3ccc(N4CCN(C(=O)CCCCCNc5ccc6c(c5)C(=O)N(C5CCC(=O)NC5=O)C6=O)CC4)cn3)CC2)cc1Cl (stereo not drawn) [Example 112, 1-(3-chloro-4-cyanophenyl)-N-(5-(4-(6-((2-(2,6-dioxopiperidin-3-yl)-1,3-dioxoisoindolin-5-yl)amino)hexanoyl)piperazin-1-yl)pyridin-2-yl)piperidine-4-carboxamide] | 9% | 55% | 50% | 48%
N#Cc1ccc(N2CCC(C(=O)Nc3ccc(N4CCN(CCCCCOc5ccc6c(c5)C(=O)N(C5CCC(=O)NC5=O)C6=O)CC4)cn3)CC2)cc1C(F)(F)F (stereo not drawn) [Example 113, 1-(4-cyano-3-(trifluoromethyl)phenyl)-N-(5-(4-(5-((2-(2,6-dioxopiperidin-3-yl)-1,3-dioxoisoindolin-5-yl)oxy)pentyl)piperazin-1-yl)pyridin-2-yl)piperidine-4-carboxamide] | 55% | 92% | 87% | –
N#Cc1ccc(N2CCC(C(=O)Nc3ccc(N4CCN(CCCCCOc5ccc6c(c5)C(=O)N(C5CCC(=O)NC5=O)C6=O)CC4)cn3)CC2)cc1Cl (stereo not drawn) [Example 114, 1-(3-chloro-4-cyanophenyl)-N-(5-(4-(5-((2-(2,6-dioxopiperidin-3-yl)-1,3-dioxoisoindolin-5-yl)oxy)pentyl)piperazin-1-yl)pyridin-2-yl)piperidine-4-carboxamide] | 41% | 89% | 91% | –
N#Cc1ccc(N2CCC(C(=O)Nc3ccc(N4CCN(CCCCOc5ccc6c(c5)C(=O)N(C5CCC(=O)NC5=O)C6=O)CC4)cn3)CC2)cc1C(F)(F)F (stereo not drawn) [Example 115, 1-(4-cyano-3-(trifluoromethyl)phenyl)-N-(5-(4-(4-((2-(2,6-dioxopiperidin-3-yl)-1,3-dioxoisoindolin-5-yl)oxy)butyl)piperazin-1-yl)pyridin-2-yl)piperidine-4-carboxamide] | 18% | 89% | 87% | –
N#Cc1ccc(N2CCC(C(=O)Nc3ccc(N4CCN(CCCCOc5ccc6c(c5)C(=O)N(C5CCC(=O)NC5=O)C6=O)CC4)cn3)CC2)cc1Cl (stereo not drawn) [Example 116, 1-(3-chloro-4-cyanophenyl)-N-(5-(4-(4-((2-(2,6-dioxopiperidin-3-yl)-1,3-dioxoisoindolin-5-yl)oxy)butyl)piperazin-1-yl)pyridin-2-yl)piperidine-4-carboxamide] | 24% | 43% | 53% | –
